From patent publication US20190211072A1, “TRI-AGONIST FOR THE GLu, GLP-1 AND NPY2 RECEPTORS” (Syracuse University, priority 2018, published 2019)

What was measured:
[1] = target: T1, GLP-1R (Homo sapiens, UniProt P43220); experiment: LY2409021 block of GGP817 action in HEK293-GLP-1R cells transduced with H188; assay type: cell-based
T1 construct: expressed in transfected cells; host or cells: HEK293-GLP-1R cells transduced with the H188 cAMP FRET reporter
From the text: (§1) It is increasingly evident that hybrid peptides have the capacity to stimulate multiple GPCRs that participate in metabolic homeostasis.
(§2) This was established by monitoring its ability to stimulate a 60% maximal ΔFRET in the cAMP assay.

[2] = target: GluR (UniProt P30082); experiment: LY2409021 block of GGP817 action in HEK293-GluR cells transduced with H188; assay type: cell-based; settings: read-out: IC50, block of GGP817 agonist action at the GluR, GGP817 300 nM
From the text: as §1, §2

[3] = target: T2, human NPY2R (Homo sapiens, UniProt P49146); experiment: cAMP-lowering action in HEK293-H188-C24 cells transfected with NPY2R (adenosine or forskolin pre-stimulation); assay type: cell-based; settings: BIIE0246 2 μM; adenosine 2 μM
T2 construct: expressed in transfected cells; host or cells: HEK293-H188-C24 cells
T2 sequence (P49146 1-381): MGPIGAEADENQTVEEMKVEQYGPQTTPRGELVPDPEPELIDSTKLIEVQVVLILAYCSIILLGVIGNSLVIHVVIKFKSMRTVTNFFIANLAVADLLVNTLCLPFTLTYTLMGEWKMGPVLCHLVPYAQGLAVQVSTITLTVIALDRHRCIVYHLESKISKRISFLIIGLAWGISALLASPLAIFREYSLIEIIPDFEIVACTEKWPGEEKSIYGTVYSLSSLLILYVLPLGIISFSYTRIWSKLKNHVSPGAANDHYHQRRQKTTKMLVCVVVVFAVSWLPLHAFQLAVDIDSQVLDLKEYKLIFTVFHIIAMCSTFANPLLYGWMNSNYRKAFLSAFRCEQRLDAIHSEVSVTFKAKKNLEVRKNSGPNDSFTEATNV

[4] = target: T3, human neuropeptide Y2 receptor (NPY2R) (human, UniProt P49146); experiment: cell-based or functional assay
T3 sequence: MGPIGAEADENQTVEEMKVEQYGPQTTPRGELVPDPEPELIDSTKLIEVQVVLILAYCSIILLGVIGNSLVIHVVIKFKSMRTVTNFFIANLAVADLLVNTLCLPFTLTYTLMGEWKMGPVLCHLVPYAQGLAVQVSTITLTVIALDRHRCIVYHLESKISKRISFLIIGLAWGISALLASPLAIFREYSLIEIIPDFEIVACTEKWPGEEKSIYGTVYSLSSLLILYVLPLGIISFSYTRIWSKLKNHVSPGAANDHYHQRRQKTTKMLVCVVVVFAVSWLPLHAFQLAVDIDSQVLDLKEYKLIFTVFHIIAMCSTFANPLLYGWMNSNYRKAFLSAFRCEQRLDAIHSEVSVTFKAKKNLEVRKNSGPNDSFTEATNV

T1 sequence (P43220 24-463, species assumed): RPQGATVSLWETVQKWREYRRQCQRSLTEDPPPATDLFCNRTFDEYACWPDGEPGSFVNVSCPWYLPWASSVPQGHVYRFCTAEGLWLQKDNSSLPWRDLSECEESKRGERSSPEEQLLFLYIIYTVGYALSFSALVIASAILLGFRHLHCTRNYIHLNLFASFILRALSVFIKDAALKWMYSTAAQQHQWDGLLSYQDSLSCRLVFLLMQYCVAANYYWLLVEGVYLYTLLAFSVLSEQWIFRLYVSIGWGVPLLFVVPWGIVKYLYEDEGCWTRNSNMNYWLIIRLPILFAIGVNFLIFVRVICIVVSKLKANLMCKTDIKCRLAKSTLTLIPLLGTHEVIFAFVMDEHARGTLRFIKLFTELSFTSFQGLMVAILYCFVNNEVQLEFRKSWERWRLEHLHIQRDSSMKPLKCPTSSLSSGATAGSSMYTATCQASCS

**Q.** Which IC50 [1] does the source give for `Cc1cc(O[C@@H](CCC(F)(F)F)c2ccc(C(=O)NCCC(=O)O)cc2)cc(C)c1-c1ccc(C(C)(C)C)cc1` [LY2409021] here?
**A.** 1600 nM

**Q.** And the IC50 [2]?
**A.** 908 nM

**Q.** Which “effect of antagonist on the cAMP-lowering action of GGP817” value [3] does the source give for `N=C(N)NCCC[C@H](NC(=O)CC1(CC(=O)N2CCN(C3c4ccccc4NC(=O)c4ccccc43)CC2)CCCC1)C(=O)NCCn1c(=O)n(-c2ccccc2)n(-c2ccccc2)c1=O` (stereo partly shown) [BIIE0246] here?
**A.** blocked

**Q.** How did the “EC50 of NPY2 receptor agonism (H188 FRET)” value [4] turn out when HSQGTFTSDYSKYLDSRRAQDFVQWLMNTRHYLNLVTRQRY (C-terminal amide (-NH2)) [GGP817] was run?
**A.** ~3000 nM
